Laboratory results taken from patent US11718633B2, “Indole compounds, process for the preparation and use thereof” (priority 2018, dated 2023).
In brackets after ≈: the same amount, converted by molar mass.

Experiments:
[1] = system: TB aerosol lung infection model; settings: in vivo; cited from earlier work
[2] = system: drug-sensitive Mycobacterium tuberculosis strains; settings: drug-sensitive M. tuberculosis; cited from earlier work
Mtb. H37Rv = experiment: Antibacterial susceptibility testing, broth microdilution MIC; assay type: cell-based, Mycobacterium tuberculosis; settings: M. tuberculosis H37Rv ATCC 27294, 7 days, 37° C., no visible growth; for MIC: Mycobacterium tuberculosis, ATCC 27294 / H37Rv, 168 h, read-out: MIC against mycobacterium tuberculosis Mtb. H37Rv
[3] = In vitro solubility in buffer at different pH (HPLC); settings: for solubility at 5 min: kinetic from dmso stock
physchem = settings: kinetic from dmso stock
[4] = pH 1.2, simulated gastric fluid

In the case of `C[C@@H]1[C@H]2C[C@@H](C[C@H]1NC(=O)c1cc3c(F)cc(F)cc3[nH]1)C2(C)C` [4,6-difluoro-N-((1R,2R,3R,5S)-2,6,6-trimethylbicyclo[3.1.1]heptan-3-yl)-1H-indole-2-carboxamide], the “activity in the TB aerosol lung infection model (in words)” value [1] is listed as “excellent activity”, the MIC [2] is listed as 0.012 µM (≈ 0.00399 µg/mL) and the SI [2] is listed as no less than 16000.

`CC1(C)CCC(NC(=O)c2cc3ccccc3[nH]2)CC1` [Compound (a), N-(4,4-dimethylcyclohexyl)-1H-indole-2-carboxamide] showed an MIC (Mtb. H37Rv) of 0.06 µg/mL (≈ 0.222 µM).

`C[Si]1(C)CCC(NC(=O)c2cc3ccccc3[nH]2)CC1` [Compound (b), N-(1,1-dimethylsilinan-4-yl)-1H-indole-2-carboxamide] showed an MIC (Mtb. H37Rv) of 0.03 µg/mL (≈ 0.105 µM).

`C[Si]1(C)CCN(NC(=O)c2cc3ccccc3[nH]2)CC1` [Compound (c), N-(4,4-dimethyl-1,4-azasilinan-1-yl)-1H-indole-2-carboxamide] gave an MIC (Mtb. H37Rv) of 2 µg/mL (≈ 6.96 µM).

For `C[Si]1(C)CCN(C(=O)c2cc3ccccc3[nH]2)CC1` [Compound (d), (4,4-dimethyl-1,4-azasilinan-1-yl)(1H-indol-2-yl)methanone], the MIC (Mtb. H37Rv) was 32 µg/mL (≈ 117 µM).

`C[Si]1(C)CCC(NC(=O)c2cc3c(Cl)cc(Cl)cc3[nH]2)CC1` [Compound (e), 4,6-dichloro-N-(1,1-dimethylsilinan-4-yl)-1H-indole-2-carboxamide] showed an MIC (Mtb. H37Rv) of 0.03 µg/mL (≈ 0.0844 µM).

In the case of `C[Si]1(C)CCN(NC(=O)c2cc3c(Cl)cc(Cl)cc3[nH]2)CC1` [Compound (f), 4,6-dichloro-N-(4,4-dimethyl-1,4-azasilinan-1-yl)-1H-indole-2-carboxamide], the “aqueous solubility at the acidic pH (in words)” value (from here on “aqueous solubility”) [3] is reported as “good aqueous solubility”, the solubility at 5 min [3, 4] is reported as 40.4 µM (≈ 14.4 µg/mL) and the solubility at 5 min ([3]; pH 2.2, aqueous buffer) is reported as 26.3 µM (≈ 9.37 µg/mL). It also gave a solubility at 5 min ([3]; pH 4.5, aqueous buffer) of 2.57 µM (≈ 0.916 µg/mL), a solubility at 5 min ([3]; pH 7.4, aqueous buffer) of 2.57 µM (≈ 0.916 µg/mL) and a solubility at 5 min ([3]; pH 10.2, aqueous buffer) of 2.7 µM (≈ 0.962 µg/mL). It also gave an MIC (Mtb. H37Rv) of 0.03 µg/mL (≈ 0.0842 µM).

`C[Si]1(C)CCN(C(=O)c2cc3c(Cl)cc(Cl)cc3[nH]2)CC1` [Compound (g), (4,6-dichloro-1H-indol-2-yl)(4,4-dimethyl-1,4-azasilinan-1-yl)methanone] showed an MIC (Mtb. H37Rv) of 16 µg/mL (≈ 46.9 µM).

`CC1(C)CCN(NC(=O)c2cc3c(Cl)cc(Cl)cc3[nH]2)CC1` [Compound (h), 4,6-dichloro-N-(4,4-dimethylpiperidin-1-yl)-1H-indole-2-carboxamide] gave a solubility at 5 min (physchem; [4]) of 41.1 µM (≈ 14 µg/mL), a solubility at 5 min (physchem; pH 2.2, aqueous buffer) of 30 µM (≈ 10.2 µg/mL) and a solubility at 5 min (physchem; pH 4.5, aqueous buffer) of 8.6 µM (≈ 2.93 µg/mL). It also gave a solubility at 5 min (physchem; pH 7.4, aqueous buffer) of 6.32 µM (≈ 2.15 µg/mL) and a solubility at 5 min (physchem; pH 10.2, aqueous buffer) of 8.67 µM (≈ 2.95 µg/mL).

`C[Si]1(C)CCC(NC(=O)c2cc3c(F)cc(F)cc3[nH]2)CC1` [Compound (i), N-(1,1-dimethylsilinan-4-yl)-4,6-difluoro-1H-indole-2-carboxamide] gave a solubility at 5 min ([3]; pH 10.2, aqueous buffer) of 9.03 µM (≈ 2.91 µg/mL) and an MIC (Mtb. H37Rv) of 0.03 µg/mL (≈ 0.093 µM).

For `C[Si]1(C)CCN(NC(=O)c2cc3c(F)cc(F)cc3[nH]2)CC1` [Compound (j), N-(4,4-dimethyl-1,4-azasilinan-1-yl)-4,6-difluoro-1H-indole-2-carboxamide], the “aqueous solubility” value [3] was “good aqueous solubility”, the solubility at 5 min [3, 4] was 49.7 µM (≈ 16.1 µg/mL) and the solubility at 5 min ([3]; pH 2.2, aqueous buffer) was 31.3 µM (≈ 10.1 µg/mL). For the same molecule, the solubility at 5 min ([3]; pH 4.5, aqueous buffer) was 1.01 µM (≈ 0.327 µg/mL), the solubility at 5 min ([3]; pH 7.4, aqueous buffer) was 1 µM (≈ 0.323 µg/mL) and the solubility at 5 min ([3]; pH 10.2, aqueous buffer) was 1.1 µM (≈ 0.356 µg/mL). It also gave an MIC (Mtb. H37Rv) of 0.125 µg/mL (≈ 0.386 µM).

With `C[Si]1(C)CCN(C(=O)c2cc3c(F)cc(F)cc3[nH]2)CC1` [Compound (k), (4,6-difluoro-1H-indol-2-yl)(4,4-dimethyl-1,4-azasilinan-1-yl)methanone] the MIC (Mtb. H37Rv) was 32 µg/mL (≈ 104 µM).

`CC1(C)CCN(NC(=O)c2cc3c(F)cc(F)cc3[nH]2)CC1` [Compound (l), N-(4,4-dimethylpiperidin-1-yl)-4,6-difluoro-1H-indole-2-carboxamide] showed a solubility at 5 min (physchem; [4]) of 49.6 µM (≈ 15.3 µg/mL), a solubility at 5 min (physchem; pH 2.2, aqueous buffer) of 46.4 µM (≈ 14.3 µg/mL) and a solubility at 5 min (physchem; pH 4.5, aqueous buffer) of 17.3 µM (≈ 5.31 µg/mL). The solubility at 5 min (physchem; pH 7.4, aqueous buffer) was 29.4 µM (≈ 9.04 µg/mL) and the solubility at 5 min (physchem; pH 10.2, aqueous buffer) was 21.4 µM (≈ 6.57 µg/mL).

In the case of `C[Si]1(C)CCN(NC(=O)c2cc3c(Cl)cc(Cl)cc3[nH]2)CC1.Cl` [Compound (m), 4,6-dichloro-N-(4,4-dimethyl-1,4-azasilinan-1-yl)-1H-indole-2-carboxamide hydrochloride], the “aqueous solubility” value [3] is reported as “good aqueous solubility”, the solubility at 5 min [3, 4] is reported as 38.6 µM and the solubility at 5 min ([3]; pH 2.2, aqueous buffer) is reported as 28.4 µM. It also gave a solubility at 5 min ([3]; pH 4.5, aqueous buffer) of 2.55 µM, a solubility at 5 min ([3]; pH 7.4, aqueous buffer) of 2.73 µM and a solubility at 5 min ([3]; pH 10.2, aqueous buffer) of 2.46 µM.

For `CC1(C)CCN(NC(=O)c2cc3c(Cl)cc(Cl)cc3[nH]2)CC1.Cl` [Compound (n), 4,6-dichloro-N-(4,4-dimethylpiperidin-1-yl)-1H-indole-2-carboxamide hydrochloride], the solubility at 5 min (physchem; [4]) was 42.6 µM, the solubility at 5 min (physchem; pH 2.2, aqueous buffer) was 26.2 µM and the solubility at 5 min (physchem; pH 4.5, aqueous buffer) was 7.24 µM. For the same molecule, the solubility at 5 min (physchem; pH 7.4, aqueous buffer) was 10.6 µM and the solubility at 5 min (physchem; pH 10.2, aqueous buffer) was 9.89 µM.

For `CC1(C)CCC(NC(=O)c2cc3c(Cl)cc(Cl)cc3[nH]2)CC1` [NITD 304, reference compound], the “Solubility in DMSO (standard solution)” value ([3]; DMSO @ 10 μM Concentration) was “Insoluble in DMSO @ 10 μM Concentration” and the “MIC against mycobacterium tuberculosis Mtb. H37Rv” value (Mtb. H37Rv) was 0.06 µg/mL (≈ 0.177 µM).

With `CC1(C)CCC(NC(=O)c2cc3c(F)cc(F)cc3[nH]2)CC1` [NITD 349, reference compound] the “Solubility pH 1.2” value ([3]; buffer pH 1.2) was 0.24 μM, the “Solubility pH 2.2” value ([3]; buffer pH 2.2) was 0.29 μM and the “Solubility pH 4.5” value ([3]; buffer pH 4.5) was 0.15 μM. For the same molecule, the “Solubility pH 7.4” value ([3]; buffer pH 7.4) was 0.24 μM, the “Solubility pH 10.2” value ([3]; buffer pH 10.2) was 7.30 μM and the “MIC against mycobacterium tuberculosis Mtb. H37Rv” value (Mtb. H37Rv) was 0.03 µg/mL (≈ 0.0979 µM).
